Measurements taken from article doi:10.1101/2021.04.08.439011v1 (biorxiv, 2021).
Like-named read-outs stand apart in the source and are kept apart here.

Key:
ABL1(Q252H) = ABL1(Q252H) (Homo sapiens, UniProt P00519, Q252H); details: 1 µM, binder
VRK2 = VRK2 (Homo sapiens, UniProt Q86Y07); details: 1 µM; binder
CSNK1G2 = CSNK1G2 (Homo sapiens, UniProt P78368); details: 1 µM; binder
JAK1 = JAK1 (Homo sapiens, UniProt P23458); details: binder
BUB1 = BUB1 (Homo sapiens, UniProt O43683); details: 1 µM; binder
PCTK1 = PCTK1 (Homo sapiens, UniProt Q00536); details: 1 µM; binder
EGFR(L858R,T790M) = EGFR(L858R,T790M) (Homo sapiens, UniProt P00533, L858R/T790M); details: 1 µM; binder
ERK4 = ERK4 (Homo sapiens, UniProt P31152); details: 1 µM; binder
SNARK = SNARK (Homo sapiens, UniProt Q9H093); details: 1 µM; binder
CSNK2A2 = CSNK2A2 (Homo sapiens, UniProt P19784); details: 1 µM; binder
ROS1 = ROS1 (Homo sapiens, UniProt P08922); details: 1 µM; binder
MEK3 = MEK3 (Homo sapiens, UniProt P46734); details: 1 µM; binder
CDK4-cyclinD3 = CDK4-cyclinD3 (Homo sapiens, UniProt P11802); details: 1 µM; binder
BRSK1 = BRSK1 (Homo sapiens, UniProt Q8TDC3); details: 1 µM; binder
HIPK3 = HIPK3 (Homo sapiens, UniProt Q9H422); details: 1 µM; binder
JAK3 = JAK3 (Homo sapiens, UniProt P52333); details: JH1 domain catalytic; binder
CDK19 = CDK19 (Homo sapiens, UniProt Q9BWU1); details: 1 µM; binder
ALK(C1156Y) = ALK(C1156Y) (Homo sapiens, UniProt Q9UM73, C1156Y); details: 1 µM; binder
RET = RET (Homo sapiens, UniProt P07949); details: 1 µM; binder
TYRO3 = TYRO3 (Homo sapiens, UniProt Q06418); details: 1 µM; binder
FYN = FYN (Homo sapiens, UniProt P06241); details: 1 µM; binder
STK16 = STK16 (Homo sapiens, UniProt O75716); details: 1 µM; binder
PRP4 = PRP4 (Homo sapiens, UniProt Q13523); details: 1 µM; binder
p38-alpha = p38-alpha (Homo sapiens, UniProt Q16539); details: 1 µM; binder
ERN1 = ERN1 (Homo sapiens, UniProt O75460); details: 1 µM; binder
TRPM6 = TRPM6 (Homo sapiens, UniProt Q9BX84); details: 1 µM; binder
GRK7 = GRK7 (Homo sapiens, UniProt Q8WTQ7); details: 1 µM; binder
FLT1 = FLT1 (Homo sapiens, UniProt P17948); details: 1 µM; binder
PIK3CA(I800L) = PIK3CA(I800L) (Homo sapiens, UniProt P42336, I800L); details: 1 µM; binder
PKAC-beta = PKAC-beta (Homo sapiens, UniProt P22694); details: 1 µM; binder

Chain of JAK1 (P23458 whole entry): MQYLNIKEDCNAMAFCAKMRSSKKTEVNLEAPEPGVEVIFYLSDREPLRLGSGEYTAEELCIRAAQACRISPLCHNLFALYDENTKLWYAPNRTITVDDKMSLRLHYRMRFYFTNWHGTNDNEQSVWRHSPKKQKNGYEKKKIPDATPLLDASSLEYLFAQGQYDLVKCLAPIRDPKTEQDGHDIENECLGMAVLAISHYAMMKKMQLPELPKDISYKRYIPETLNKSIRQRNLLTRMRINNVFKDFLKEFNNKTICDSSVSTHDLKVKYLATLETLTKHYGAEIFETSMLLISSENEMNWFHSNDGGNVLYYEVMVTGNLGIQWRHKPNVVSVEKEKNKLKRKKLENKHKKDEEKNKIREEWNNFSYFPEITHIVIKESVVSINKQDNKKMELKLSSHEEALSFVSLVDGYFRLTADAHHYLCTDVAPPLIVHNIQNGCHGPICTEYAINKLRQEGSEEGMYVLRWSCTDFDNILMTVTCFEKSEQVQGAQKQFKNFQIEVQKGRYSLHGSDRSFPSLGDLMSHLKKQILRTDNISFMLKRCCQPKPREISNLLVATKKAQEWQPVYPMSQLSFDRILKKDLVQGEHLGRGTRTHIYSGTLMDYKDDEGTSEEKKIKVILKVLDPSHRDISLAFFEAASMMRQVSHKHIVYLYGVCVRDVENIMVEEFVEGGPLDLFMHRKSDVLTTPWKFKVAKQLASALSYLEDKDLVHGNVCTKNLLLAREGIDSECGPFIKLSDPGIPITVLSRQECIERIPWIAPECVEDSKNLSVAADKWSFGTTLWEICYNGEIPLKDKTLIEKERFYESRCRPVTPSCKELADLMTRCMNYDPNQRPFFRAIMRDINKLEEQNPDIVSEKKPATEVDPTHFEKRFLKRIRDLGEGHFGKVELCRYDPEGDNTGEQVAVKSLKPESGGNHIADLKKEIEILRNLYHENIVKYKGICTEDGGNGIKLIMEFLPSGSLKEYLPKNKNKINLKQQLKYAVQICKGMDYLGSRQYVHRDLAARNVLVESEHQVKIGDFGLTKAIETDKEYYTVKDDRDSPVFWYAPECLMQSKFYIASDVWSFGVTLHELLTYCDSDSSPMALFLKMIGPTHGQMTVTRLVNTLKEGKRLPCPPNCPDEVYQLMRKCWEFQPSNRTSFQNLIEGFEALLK
Chain of TRPM6 (Q9BX84 whole entry): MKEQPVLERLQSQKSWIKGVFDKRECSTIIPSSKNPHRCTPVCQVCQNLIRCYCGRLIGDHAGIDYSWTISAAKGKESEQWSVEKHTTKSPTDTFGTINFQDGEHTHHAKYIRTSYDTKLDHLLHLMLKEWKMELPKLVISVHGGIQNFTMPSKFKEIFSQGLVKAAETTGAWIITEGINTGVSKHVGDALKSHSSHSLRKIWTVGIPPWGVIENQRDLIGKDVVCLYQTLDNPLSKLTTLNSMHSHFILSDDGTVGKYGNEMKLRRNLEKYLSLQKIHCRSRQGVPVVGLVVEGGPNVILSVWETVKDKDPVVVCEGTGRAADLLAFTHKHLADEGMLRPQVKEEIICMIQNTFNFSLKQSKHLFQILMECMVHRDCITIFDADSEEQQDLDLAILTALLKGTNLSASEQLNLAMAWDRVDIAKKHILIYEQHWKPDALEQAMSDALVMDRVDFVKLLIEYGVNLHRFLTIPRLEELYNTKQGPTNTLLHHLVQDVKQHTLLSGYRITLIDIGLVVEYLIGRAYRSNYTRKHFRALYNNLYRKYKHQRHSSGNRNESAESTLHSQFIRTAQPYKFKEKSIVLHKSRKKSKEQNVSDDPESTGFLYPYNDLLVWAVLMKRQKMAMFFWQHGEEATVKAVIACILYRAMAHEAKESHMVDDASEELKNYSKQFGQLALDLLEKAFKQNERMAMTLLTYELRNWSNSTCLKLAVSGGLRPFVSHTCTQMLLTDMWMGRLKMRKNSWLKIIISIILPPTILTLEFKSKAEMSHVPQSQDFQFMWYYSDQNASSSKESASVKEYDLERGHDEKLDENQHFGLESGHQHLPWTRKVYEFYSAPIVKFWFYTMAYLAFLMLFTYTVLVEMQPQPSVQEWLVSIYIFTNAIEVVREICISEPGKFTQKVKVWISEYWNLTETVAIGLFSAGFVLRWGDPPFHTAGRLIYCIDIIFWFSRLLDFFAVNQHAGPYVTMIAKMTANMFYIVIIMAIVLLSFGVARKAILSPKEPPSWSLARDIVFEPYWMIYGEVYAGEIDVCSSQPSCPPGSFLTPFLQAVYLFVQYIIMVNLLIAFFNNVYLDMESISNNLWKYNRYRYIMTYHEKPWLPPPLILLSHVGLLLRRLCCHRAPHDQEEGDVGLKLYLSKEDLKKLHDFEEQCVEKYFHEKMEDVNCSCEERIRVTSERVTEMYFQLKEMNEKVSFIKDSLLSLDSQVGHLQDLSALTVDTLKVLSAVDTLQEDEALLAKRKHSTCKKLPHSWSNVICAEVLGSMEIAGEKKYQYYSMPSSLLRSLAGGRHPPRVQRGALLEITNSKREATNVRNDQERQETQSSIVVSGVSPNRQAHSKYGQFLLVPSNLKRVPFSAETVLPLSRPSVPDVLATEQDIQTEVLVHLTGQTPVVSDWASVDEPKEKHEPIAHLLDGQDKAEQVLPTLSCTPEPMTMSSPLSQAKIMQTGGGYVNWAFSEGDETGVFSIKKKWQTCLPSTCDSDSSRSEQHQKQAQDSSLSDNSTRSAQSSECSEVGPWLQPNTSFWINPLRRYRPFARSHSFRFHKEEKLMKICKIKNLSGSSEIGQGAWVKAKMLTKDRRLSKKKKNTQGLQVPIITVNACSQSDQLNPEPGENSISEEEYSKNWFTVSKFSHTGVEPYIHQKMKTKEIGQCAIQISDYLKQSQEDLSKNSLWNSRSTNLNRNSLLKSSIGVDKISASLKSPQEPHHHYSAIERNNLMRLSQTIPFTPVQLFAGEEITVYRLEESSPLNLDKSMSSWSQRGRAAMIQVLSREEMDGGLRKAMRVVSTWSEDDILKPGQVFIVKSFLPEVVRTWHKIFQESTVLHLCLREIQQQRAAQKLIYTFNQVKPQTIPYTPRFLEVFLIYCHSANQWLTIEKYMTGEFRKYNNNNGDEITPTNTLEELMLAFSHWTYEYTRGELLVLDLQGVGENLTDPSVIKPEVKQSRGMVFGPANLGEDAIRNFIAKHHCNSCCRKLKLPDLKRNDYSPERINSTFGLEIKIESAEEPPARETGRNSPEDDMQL
Chain of CDK19 (Q9BWU1 whole entry): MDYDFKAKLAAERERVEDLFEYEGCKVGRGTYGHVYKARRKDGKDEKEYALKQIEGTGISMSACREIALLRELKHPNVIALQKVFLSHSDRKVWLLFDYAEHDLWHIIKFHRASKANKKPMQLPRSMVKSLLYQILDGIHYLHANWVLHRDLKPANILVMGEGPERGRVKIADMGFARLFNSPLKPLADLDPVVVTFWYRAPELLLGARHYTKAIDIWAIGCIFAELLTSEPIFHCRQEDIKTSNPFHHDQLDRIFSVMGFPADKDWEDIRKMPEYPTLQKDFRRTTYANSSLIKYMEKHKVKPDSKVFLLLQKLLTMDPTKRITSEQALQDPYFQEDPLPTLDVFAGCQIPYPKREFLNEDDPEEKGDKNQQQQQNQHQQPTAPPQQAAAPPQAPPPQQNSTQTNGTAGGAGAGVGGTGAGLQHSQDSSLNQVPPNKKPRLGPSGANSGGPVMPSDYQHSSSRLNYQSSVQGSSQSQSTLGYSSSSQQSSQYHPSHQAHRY
Chain of CDK4-cyclinD3 (P11802 whole entry): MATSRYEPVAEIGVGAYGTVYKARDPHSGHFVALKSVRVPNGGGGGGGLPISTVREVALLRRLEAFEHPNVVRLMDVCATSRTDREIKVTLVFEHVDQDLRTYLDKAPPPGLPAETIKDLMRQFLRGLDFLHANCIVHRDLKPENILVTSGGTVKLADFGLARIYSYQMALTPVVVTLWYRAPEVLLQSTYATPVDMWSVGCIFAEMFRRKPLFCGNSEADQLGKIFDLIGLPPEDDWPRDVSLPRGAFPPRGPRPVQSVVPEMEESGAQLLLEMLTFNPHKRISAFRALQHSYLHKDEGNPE
Chain of CDK4-cyclinD3 (P30281 whole entry partner): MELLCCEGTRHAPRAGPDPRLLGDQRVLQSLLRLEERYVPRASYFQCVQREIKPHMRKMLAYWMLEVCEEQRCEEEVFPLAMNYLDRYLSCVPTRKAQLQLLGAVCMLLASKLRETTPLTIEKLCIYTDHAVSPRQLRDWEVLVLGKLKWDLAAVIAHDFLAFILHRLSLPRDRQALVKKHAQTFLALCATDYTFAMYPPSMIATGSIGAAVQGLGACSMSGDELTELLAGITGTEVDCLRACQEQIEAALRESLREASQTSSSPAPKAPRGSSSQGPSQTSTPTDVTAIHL
Chain of FYN (P06241 whole entry): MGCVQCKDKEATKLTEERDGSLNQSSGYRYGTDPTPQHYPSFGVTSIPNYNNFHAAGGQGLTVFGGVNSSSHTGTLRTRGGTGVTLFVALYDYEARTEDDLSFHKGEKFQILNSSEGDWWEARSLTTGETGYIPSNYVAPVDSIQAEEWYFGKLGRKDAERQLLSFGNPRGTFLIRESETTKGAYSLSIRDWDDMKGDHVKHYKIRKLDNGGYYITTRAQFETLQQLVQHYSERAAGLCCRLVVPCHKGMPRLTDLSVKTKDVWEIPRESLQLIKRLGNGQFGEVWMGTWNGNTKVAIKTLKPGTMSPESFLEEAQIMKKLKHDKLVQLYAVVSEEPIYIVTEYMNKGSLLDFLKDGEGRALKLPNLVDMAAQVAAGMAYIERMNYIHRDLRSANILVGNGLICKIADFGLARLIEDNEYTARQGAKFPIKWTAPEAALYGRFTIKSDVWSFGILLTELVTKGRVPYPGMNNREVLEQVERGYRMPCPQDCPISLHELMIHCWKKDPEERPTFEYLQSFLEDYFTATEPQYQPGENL

CNc1ncc2cc(-c3ccc(-c4cccc(C)n4)cc3Cl)c(=O)n(C[C@H]3OC[C@H](N)CO3)c2n1 [compound 6, G-5555]
Percent Control (ABL1(Q252H); nonphosphorylated): 75%
Percent Control (ABL1(Q252H); phosphorylated): 100%
Percent Control (VRK2): 100%
Percent Control (CSNK1G2): 83%
Percent Control (JAK1; JH1 domain catalytic): 100%
Percent Control (JAK1; JH2 domain pseudokinase, 1 µM): 92%
Percent Control (BUB1): 89%
Percent Control (PCTK1): 100%
Percent Control (EGFR(L858R,T790M)): 100%
Percent Control (ERK4): 100%
Percent Control (SNARK): 2%
Percent Control (CSNK2A2): 95%
Percent Control (ROS1): 100%
Percent Control (MEK3): 29%
Percent Control (CDK4-cyclinD3): 100%
Percent Control (BRSK1): 100%
Percent Control (HIPK3): 100%
Percent Control (JAK3): 90%
Percent Control (CDK19): 100%
Percent Control (ALK(C1156Y)): 100%
Percent Control (RET): 94%
Percent Control (TYRO3): 92%
Percent Control (FYN): 87%
Percent Control (STK16): 69%
Percent Control (PRP4): 95%
Percent Control (p38-alpha): 100%
Percent Control (ERN1): 100%
Percent Control (TRPM6): 100%
Percent Control (GRK7): 89%
Percent Control (FLT1): 100%
Percent Control (PIK3CA(I800L)): 100%
Percent Control (PKAC-beta): 95%
